The target of assay [1] is T1, human TYK2 kinase domain (JH1) (Homo sapiens, UniProt P29597).
T1 construct: recombinantly generated catalytic kinase (also known as JH1) domain of human JAK1, JAK2, JAK3 and TYK2
T1 sequence (P29597 897-1176 limits assumed): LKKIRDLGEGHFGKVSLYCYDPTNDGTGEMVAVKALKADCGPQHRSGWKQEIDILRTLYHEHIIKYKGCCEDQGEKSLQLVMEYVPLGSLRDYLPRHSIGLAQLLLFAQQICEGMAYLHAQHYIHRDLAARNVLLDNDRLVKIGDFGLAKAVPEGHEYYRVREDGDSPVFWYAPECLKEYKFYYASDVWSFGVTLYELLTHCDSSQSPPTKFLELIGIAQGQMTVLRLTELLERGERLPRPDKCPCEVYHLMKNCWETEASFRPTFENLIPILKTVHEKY
Kind of assay: JH1 biochemical assay for TYK2 (ADP-Glo kinase assay, recombinant JH1 catalytic domain, JAK3-974 peptide, 10 μM ATP). The method in brief:
(§1)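 Compounds were titrated in 11 points of 3-fold dilution starting at 10 μM or 1 μM. Enzyme (JAK1 4 nM, JAK2 0.2 nM, JAK3 0.3 nM, TYK2 2 nM) and 50 μM peptide reacted for 100 minutes, followed by ADP-to-luminescence detection; IC50 by 4-parameter fit.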

In assay [2] the target is T2, human JAK1 kinase domain (JH1) (Homo sapiens, UniProt P23458).
T2 construct: recombinantly generated catalytic kinase (also known as JH1) domain of human JAK1, JAK2, JAK3 and TYK2
T2 sequence (P23458 875-1153 limits assumed): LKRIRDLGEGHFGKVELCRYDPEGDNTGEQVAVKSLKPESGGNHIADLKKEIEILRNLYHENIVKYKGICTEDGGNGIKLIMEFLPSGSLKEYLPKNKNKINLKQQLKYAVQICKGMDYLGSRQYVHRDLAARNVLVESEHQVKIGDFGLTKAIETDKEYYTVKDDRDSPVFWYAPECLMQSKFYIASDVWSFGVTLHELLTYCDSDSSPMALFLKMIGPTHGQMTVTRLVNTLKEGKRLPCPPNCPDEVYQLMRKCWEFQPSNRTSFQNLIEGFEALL
Kind of assay: JH1 biochemical assay for JAK1 (ADP-Glo kinase assay, recombinant JH1 catalytic domain, JAK3-342 peptide, 35 μM ATP). A digest of the protocol:
as §1
(In general: ADP-Glo first removes unused ATP, then detects ADP through luciferase.)

For assay [3], the target named is T3, human JAK2 kinase domain (JH1) (Homo sapiens, UniProt O60674).
T3 construct: recombinantly generated catalytic kinase (also known as JH1) domain of human JAK1, JAK2, JAK3 and TYK2
T3 sequence (O60674 849-1124 limits assumed): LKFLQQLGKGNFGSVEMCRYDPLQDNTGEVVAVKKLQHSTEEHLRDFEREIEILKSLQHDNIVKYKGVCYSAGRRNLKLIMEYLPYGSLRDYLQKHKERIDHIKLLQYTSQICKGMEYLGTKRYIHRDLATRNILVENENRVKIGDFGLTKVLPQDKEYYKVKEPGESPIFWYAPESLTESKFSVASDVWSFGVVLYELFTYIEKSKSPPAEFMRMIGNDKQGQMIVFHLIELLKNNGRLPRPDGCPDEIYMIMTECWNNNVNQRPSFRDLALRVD
Kind of assay: JH1 biochemical assay for JAK2 (ADP-Glo kinase assay, recombinant JH1 catalytic domain, JAK3-974 peptide, 15 μM ATP). The method in brief:
as §1

In assay [4] the target is T4, human JAK3 kinase domain (JH1) (Homo sapiens, UniProt P52333).
T4 construct: recombinantly generated catalytic kinase (also known as JH1) domain of human JAK1, JAK2, JAK3 and TYK2
T4 sequence (P52333 822-1111 limits assumed): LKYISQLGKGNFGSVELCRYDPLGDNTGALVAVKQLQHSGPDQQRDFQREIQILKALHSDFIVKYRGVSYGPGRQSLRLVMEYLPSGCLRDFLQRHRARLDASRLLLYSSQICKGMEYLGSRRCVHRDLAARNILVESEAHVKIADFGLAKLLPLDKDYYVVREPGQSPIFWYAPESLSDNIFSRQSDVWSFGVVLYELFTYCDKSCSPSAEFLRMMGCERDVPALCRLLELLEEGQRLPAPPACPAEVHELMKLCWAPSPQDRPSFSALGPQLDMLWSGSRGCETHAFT
Kind of assay: JH1 biochemical assay for JAK3 (ADP-Glo kinase assay, recombinant JH1 catalytic domain, JAK3-974 peptide, 4 μM ATP). The method in brief:
as §1

Assay [5] deals with Tyk2 kinase activity on STAT4 in NK92 cells (Homo sapiens, UniProt P29597). Kind of assay: pSTAT4 cell assay (MSD; NK92 cells, 30 ng/mL IL2 stimulation). Format: cell-based. Particulars: 30 ng/mL IL2, 15 minutes. The method, then: The inhibitory potency of compounds of the disclosure against the Tyk2 kinase activity on STAT4 was evaluated using an MSD-platform plate-based assay format. NK92 cells natively expressing STAT4 and Tyk2 were serum-starved to reduce background phosphorylation levels, then cells were treated compounds for 1 hr with a 10-point four-fold dilution series starting at 10 μM. Cells were then stimulated with 30 ng/mL IL2 for 15 minutes. Cells were lysed and […] levels were quantitated using an MSD plate-based assay with anti-STAT4 antibodies. The data were normalized and the percent activity versus log concentration of compound were fitted with a 4-parameter logistic model to generate to generate IC50 curves.
Tyk2 kinase activity on STAT4 in NK92 cells, sequence (P29597 whole entry): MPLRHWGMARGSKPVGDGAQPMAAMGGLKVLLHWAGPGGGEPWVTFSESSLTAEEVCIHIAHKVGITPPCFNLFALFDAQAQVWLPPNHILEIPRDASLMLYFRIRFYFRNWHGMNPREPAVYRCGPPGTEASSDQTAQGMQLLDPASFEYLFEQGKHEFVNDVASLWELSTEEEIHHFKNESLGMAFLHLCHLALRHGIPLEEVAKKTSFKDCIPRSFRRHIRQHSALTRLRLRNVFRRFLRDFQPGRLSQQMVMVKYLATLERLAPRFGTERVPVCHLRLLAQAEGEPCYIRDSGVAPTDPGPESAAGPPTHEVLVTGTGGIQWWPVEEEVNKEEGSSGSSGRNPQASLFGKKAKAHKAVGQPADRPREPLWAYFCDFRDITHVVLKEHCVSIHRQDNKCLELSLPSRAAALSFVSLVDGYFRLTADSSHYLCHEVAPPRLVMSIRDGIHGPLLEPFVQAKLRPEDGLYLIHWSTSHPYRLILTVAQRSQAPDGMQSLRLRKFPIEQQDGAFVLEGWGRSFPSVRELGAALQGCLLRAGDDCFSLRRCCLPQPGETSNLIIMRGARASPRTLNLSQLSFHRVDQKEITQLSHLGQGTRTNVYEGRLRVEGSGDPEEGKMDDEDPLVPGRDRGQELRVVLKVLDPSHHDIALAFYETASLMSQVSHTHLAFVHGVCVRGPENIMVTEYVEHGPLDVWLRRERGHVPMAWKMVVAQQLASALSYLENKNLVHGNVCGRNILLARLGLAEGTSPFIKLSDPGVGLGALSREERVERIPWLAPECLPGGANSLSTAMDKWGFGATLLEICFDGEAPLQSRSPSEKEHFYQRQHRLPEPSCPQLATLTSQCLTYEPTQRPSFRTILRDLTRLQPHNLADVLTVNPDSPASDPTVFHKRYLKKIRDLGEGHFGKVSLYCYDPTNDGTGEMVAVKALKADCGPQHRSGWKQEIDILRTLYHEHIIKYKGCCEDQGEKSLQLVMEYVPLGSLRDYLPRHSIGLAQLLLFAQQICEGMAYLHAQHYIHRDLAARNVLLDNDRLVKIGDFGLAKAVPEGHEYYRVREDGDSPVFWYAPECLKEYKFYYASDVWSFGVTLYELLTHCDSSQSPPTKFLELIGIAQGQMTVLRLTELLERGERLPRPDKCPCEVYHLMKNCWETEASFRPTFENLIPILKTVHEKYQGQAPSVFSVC

A word on the IC50: it is the concentration that inhibits the measured activity by half. Consider `C[C@@H]1CN(c2ccnn3cc(-c4cnn(C5(CO)CC5)c4)cc23)C(=O)[C@]1(C#N)C1CC1` [Example 322, (3R,4S)-3-cyclopropyl-1-(6-(1-(1-(hydroxymethyl)cyclopropyl)-1H-pyrazol-4-yl)pyrrolo[1,2-b]pyridazin-4-yl)-4-methyl-2-oxopyrrolidine-3-carbonitrile], for which the IC50 in assay [1] (TYK2 JH1, ADP-Glo) was less than 5 nM; in assay [2] (JAK1 JH1, ADP-Glo) it was 100 to 1000 nM; in assay [3] (JAK2 JH1, ADP-Glo) it was 100 to 1000 nM; in assay [4] (JAK3 JH1, ADP-Glo), less than 100 nM; in assay [5], 50 to 100 nM.

`C[C@@H]1CN(c2ccnn3cc(-n4cc(C(F)F)cn4)cc23)C(=O)[C@]1(C#N)C1CC1` [Example 338, (3R,4S)-3-cyclopropyl-1-(6-(4-(difluoromethyl)-1H-pyrazol-1-yl)pyrrolo[1,2-b]pyridazin-4-yl)-4-methyl-2-oxopyrrolidine-3-carbonitrile]: the IC50 in assay [1] (TYK2 JH1, ADP-Glo) was 20 to 50 nM; in assay [2] (JAK1 JH1, ADP-Glo), 1000 to 5000 nM; in assay [3] (JAK2 JH1, ADP-Glo) it was 100 to 1000 nM; in assay [4] (JAK3 JH1, ADP-Glo), 100 to 1000 nM; in assay [5] it was greater than 100 nM.

On to `C[C@@H]1CN(c2ccnn3cc(-n4cc(C5CN(C)CCO5)cn4)cc23)C(=O)[C@]1(C#N)C1CC1` (stereo partly drawn) [Example 317, (3R,4S)-3-cyclopropyl-4-methyl-1-(6-(4-(4-methylmorpholin-2-yl)-1H-pyrazol-1-yl)pyrrolo[1,2-b]pyridazin-4-yl)-2-oxopyrrolidine-3-carbonitrile], for which the half-maximal inhibitory concentration (IC50) in assay [1] (TYK2 JH1, ADP-Glo) is 20 to 50 nM; in assay [2] (JAK1 JH1, ADP-Glo), 1000 to 5000 nM; in assay [3] (JAK2 JH1, ADP-Glo) it was 100 to 1000 nM; in assay [4] (JAK3 JH1, ADP-Glo), 100 to 1000 nM; in assay [5], greater than 100 nM.

Turning to `Cc1cc(-c2cc(N3C[C@@H](C)[C@@](C#N)(C4CC4)C3=O)c3ccnn3c2)n[nH]1` [Example 318, (3R,4S)-3-cyclopropyl-4-methyl-1-(6-(5-methyl-1H-pyrazol-3-yl)pyrazolo[1,5-a]pyridin-4-yl)-2-oxopyrrolidine-3-carbonitrile], the IC50 in assay [1] (TYK2 JH1, ADP-Glo) is 5 to 20 nM; in assay [2] (JAK1 JH1, ADP-Glo), 100 to 1000 nM; in assay [3] (JAK2 JH1, ADP-Glo), 1000 to 5000 nM; in assay [4] (JAK3 JH1, ADP-Glo) it was 100 to 1000 nM; in assay [5] it was greater than 100 nM.

`C[C@@H]1CN(c2ccnn3cc(-c4cnn(CC5(C)COC5)c4)cc23)C(=O)[C@]1(C#N)C1CC1` [Example 325, (3R,4S)-3-cyclopropyl-4-methyl-1-(6-(1-((3-methyloxetan-3-yl)methyl)-1H-pyrazol-4-yl)pyrrolo[1,2-b]pyridazin-4-yl)-2-oxopyrrolidine-3-carbonitrile]: the IC50 in assay [1] (TYK2 JH1, ADP-Glo) is less than 5 nM; in assay [2] (JAK1 JH1, ADP-Glo) it was less than 100 nM; in assay [3] (JAK2 JH1, ADP-Glo), less than 100 nM; in assay [4] (JAK3 JH1, ADP-Glo) it was less than 100 nM; in assay [5], 20 to 50 nM.

For the compound `C[C@@H]1CN(c2ccnn3cc(-c4cnn([C@@H]5COCC(F)(F)C5)c4)cc23)C(=O)[C@]1(C#N)C1CC1` (single isomer, unassigned) [Example 328], the IC50 in assay [1] (TYK2 JH1, ADP-Glo) is less than 5 nM; in assay [2] (JAK1 JH1, ADP-Glo), less than 100 nM; in assay [3] (JAK2 JH1, ADP-Glo), less than 100 nM; in assay [4] (JAK3 JH1, ADP-Glo), less than 100 nM; in assay [5], greater than 100 nM.

Consider `C[C@@H]1CN(c2nc(-c3cnn(C4COC4)c3)cc3ncsc23)C(=O)[C@]1(C#N)C1CC1` [Example 352, (3R,4S)-3-cyclopropyl-4-methyl-1-(6-(1-(oxetan-3-yl)-1H-pyrazol-4-yl)thiazolo[5,4-c]pyridin-4-yl)-2-oxopyrrolidine-3-carbonitrile], for which the IC50 in assay [1] (TYK2 JH1, ADP-Glo) is less than 5 nM; in assay [2] (JAK1 JH1, ADP-Glo) it was less than 100 nM; in assay [3] (JAK2 JH1, ADP-Glo) it was less than 100 nM; in assay [4] (JAK3 JH1, ADP-Glo), less than 100 nM; in assay [5], 20 to 50 nM.

As to `COc1ccc(-c2cn3nccc3c(N3C[C@@H](C)[C@@](C#N)(C4CC4)C3=O)n2)nc1` [Example 213, (3R,4S)-3-cyclopropyl-1-(6-(5-methoxypyridin-2-yl)pyrazolo[1,5-a]pyrazin-4-yl)-4-methyl-2-oxopyrrolidine-3-carbonitrile], the IC50 in assay [1] (JH1 kinase domain, ADP-Glo) was 5 to 20 nM; in assay [2] (JH1 kinase domain, ADP-Glo) it was less than 100 nM; in assay [3] (JH1 kinase domain, ADP-Glo), 1000 to 5000 nM; in assay [4] (JH1 kinase domain, ADP-Glo), 100 to 1000 nM; in assay [5] it was greater than 100 nM.

The values are drawn from patent US20260297085A1, “1 H-PYRROLO[2,3-B]PYRIDIN-4-YL]-2-OXOPYRROLIDINE-3-CARBONITRILE DERIVATIVES AS TYROSINE KINASE 2 (TYK2) INHIBITORS FOR THE TREATMENT OF INFLAMMATORY DISEASES” (BIOGEN MA INC., priority 2023, published 2026).
